This is an account of results in patent publication US6310210A, “Camptothecin derivatives” (Kabushiki Kaisha Yakult Honsha, priority 1997, dated 2001).

Series [1] in a line: Solubility of each hydrochloride in purified water. It is filed as physicochemical. The protocol:
A corresponding camptothecin-21-(2-dimethylamino) ethylamide derivative (100-200 mg) was added with an aqueous 0.1 N HCl solution (1.05 eq.) and dissolved, if necessary, further by adding purified water. The solution was filtered using MILLEX-GV ([…] Filter Unit), and the filtrate was lyophilized to give the desired hydrochloride.
Table 1: Solubility of each hydrochloride in purified water

A further series relates to mouse leukemia L1210. The experiment in a line: Anti-tumor activity: life prolonging effect in mice transplanted intraperitoneally with mouse leukemia L1210 (T/C%). It is filed as in vivo. Particulars: for Anti-tumor activity (T/C%): i.p. day 1, 5 and 9; for Anti-tumor activity: fraction in parentheses after T/C% (meaning not given): group of six mice. The method, then:
5×10^5 cells of mouse leukemia L1210 were transplanted intraperitoneally to a group of six female CDP1 mice (7 weeks old, body weight 17-19 g). A test substance was administered intraperitoneally on day 1, 5 and 9, and its life prolonging effect was observed. In a case of the administration of a test substance as an acid addition salt, it was dissolved in purified water. The total administration amount was 1.56-400 mg/kg. The anti-tumor activity was expressed by the value (T/C%) in which the ratio of the mean survival days of a drug administered group (T) to the mean survival days of a not administered group (C) is multiplied by 100.

A short description of series [2]: Stability test in water at each pH (phosphate buffer, HPLC). It is filed as physicochemical. Particulars: for Amount of the compound in test solution: room temperature (about 26° C.). The protocol:
1) Preparation of calibration curve:
1.05 mg of the compound 1 and 1.10 mg of the compound A (Note) were measured, dissolved in acetonitrile 10 ml to give a standard solution. 20 μl of the standard solution was tested by HPLC method (procedure condition 1). The peak area of the compound 1 and the compound A (Note), which is obtained from the chromatograph of the standard solution is measured by an automatic integration method, and the obtained area is plotted against an amount of the compound 1 and the compound A (2.1 μg and 2.2 μg) by 20 μl to prepare a calibration curve.
[HPLC method, procedure condition 1]
Column: Inertsil ODS-3 (5-250), 40 deg.
Mobile phase: 0.01 M potassium dihydrogenphosphate-acetonitrile (3:1)
Detection: UV absorptiometer (254 nm)
About 1 mg (×3) of the compound 1 were measured, dissolved adding a phosphate buffer 10 ml of pH 10.0, 7.0 or 5.4, stirred at room temperature (about 26° C.) to make a test solution. As to each 20 μl of the test solution at the time of dissolution, 3 hr later and 24 hr later, the tests were carried out by the HPLC method (procedure condition 1). The amounts of the compound 1 were measured from the obtained area. The amounts of the compound A in each pH were measured.
The amounts (μg/ml) of the compound 1 and the compound A at the time of dissolution, 3 hr later and 24 hr later in each pH are shown in Table 7.

In brackets after ≈: the same amount, converted by molar mass. Counter-ions that a name gives are not always drawn.

For orientation: solubility means the concentration that dissolves in the medium under given conditions. Low values mean a poorly soluble substance, high ones a readily soluble substance. Take `CCNC(=O)OCc1c([C@@](O)(CC)C(=O)NCCN(C)C)cc2n(c1=O)Cc1c-2nc2ccccc2c1CC` [Compound 2, 7-Ethyl-17-ethylcarbamoyloxycamptothecin-21-(2-dimethylamino)ethylamide]: the solubility in series [1] was approximately 14 mg/mL (≈ 26.1 mM).

As to `CCCNC(=O)OCc1c([C@@](O)(CC)C(=O)NCCN(C)C)cc2n(c1=O)Cc1c-2nc2ccccc2c1CC` [Compound 3, 7-Ethyl-17-n-propylcarbamoyloxycamptothecin-21-(2-dimethylamino)ethylamide], the “Anti-tumor activity (T/C%)” value in the series with mouse leukemia L1210 (Table 2, total dose 3.13 mg/kg) was found to be 100%; in the series with mouse leukemia L1210 (Table 2, total dose 6.25 mg/kg), 100%; with mouse leukemia L1210 (Table 2, total dose 12.5 mg/kg), 139%; in the series on mouse leukemia L1210 (Table 2, total dose 25 mg/kg) it was 142%; with mouse leukemia L1210 (Table 2, total dose 50 mg/kg) it was 147%; in the series on mouse leukemia L1210 (Table 2, total dose 100 mg/kg), 147%. Also, in the series on mouse leukemia L1210 (Table 2, total dose 200 mg/kg), the “Anti-tumor activity (T/C%)” value was found to be 147%. The compound further returned a solubility in series [1] of approximately 11 mg/mL (≈ 20 mM).

`CCc1c2c(nc3ccccc13)-c1cc([C@@](O)(CC)C(=O)NCCN(C)C)c(COC(=O)NC(C)C)c(=O)n1C2` [Compound 4, 7-Ethyl-17-iso-propylcarbamoyloxycamptothecin-21-(2-dimethylamino)ethylamide]: the “Anti-tumor activity (T/C%)” value in the series with mouse leukemia L1210 (Table 4, total dose 3.13 mg/kg) turned out to be 121%; with mouse leukemia L1210 (Table 4, total dose 6.25 mg/kg), 123%; in the series on mouse leukemia L1210 (Table 4, total dose 12.5 mg/kg) it was 121%; in the series on mouse leukemia L1210 (Table 4, total dose 25 mg/kg), 123%; in the series on mouse leukemia L1210 (Table 4, total dose 50 mg/kg), 149%; in the series with mouse leukemia L1210 (Table 4, total dose 100 mg/kg) it was 205%. In the series on mouse leukemia L1210 (Table 4, total dose 200 mg/kg), the “Anti-tumor activity (T/C%)” value was found to be 323%. Further, the “Anti-tumor activity: fraction in parentheses after T/C% (meaning not given)” value in the series with mouse leukemia L1210 (Table 4, total dose 200 mg/kg) is listed as 1/6. This compound also returned a solubility in series [1] of approximately 50 mg/mL (≈ 91 mM).

As to `CCCCNC(=O)OCc1c([C@@](O)(CC)C(=O)NCCN(C)C)cc2n(c1=O)Cc1c-2nc2ccccc2c1CC` [Compound 5, 17-n-Butylcarbamoyloxy-7-ethylcamptothecin-21-(2-dimethylamino)ethylamide], in series [1], the solubility is approximately 10 mg/mL (≈ 17.7 mM).

`CCc1c2c(nc3ccccc13)-c1cc([C@@](O)(CC)C(=O)NCCN(C)C)c(COC(=O)NC3CCCCC3)c(=O)n1C2` [Compound 6, 7-Ethyl-17-c-hexylcarbamoyloxycamptothecin-21-(2-dimethylamino)ethylamide] came in with a solubility in series [1] of approximately 50 mg/mL (≈ 84.8 mM).

Regarding `CCc1c2c(nc3ccccc13)-c1cc([C@@](O)(CC)C(=O)NCCN(C)C)c(COC(=O)Nc3ccccc3)c(=O)n1C2` [Compound 7, 7-Ethyl-17-phenylcarbamoyloxycamptothecin-21-(2-dimethylamino)ethylamide], the solubility in series [1] is approximately 15 mg/mL (≈ 25.7 mM).

The compound `CCc1c2c(nc3ccccc13)-c1cc([C@@](O)(CC)C(=O)NCCN(C)C)c(COC(=O)Nc3ccccc3F)c(=O)n1C2` [Compound 8, 7-Ethyl-17-(2-fluorophenylcarbamoyloxy)-camptothecin-21-(2-dimethylamino)ethylamide] yielded a solubility in series [1] of approximately 11 mg/mL (≈ 18.3 mM).

Turning to `CCc1c2c(nc3ccccc13)-c1cc([C@@](O)(CC)C(=O)NCCN(C)C)c(COC(=O)Nc3cccc(F)c3)c(=O)n1C2` [Compound 9, 7-Ethyl-17-(3-fluorophenylcarbamoyloxy)-camptothecin-21-(2-dimethylamino)ethylamide], the solubility in series [1] is approximately 28 mg/mL (≈ 46.5 mM).

As to `CCc1c2c(nc3ccccc13)-c1cc([C@@](O)(CC)C(=O)NCCN(C)C)c(COC(=O)Nc3cccc4ccccc34)c(=O)n1C2` [Compound 11, 7-Ethyl-17-(1-naphthylcarbamoyloxy)-camptothecin-21-(2-dimethylamino)ethylamide], the solubility in series [1] was approximately 5 mg/mL (≈ 7.89 mM).

On to `CCc1c2c(nc3ccccc13)-c1cc([C@@](O)(CC)C(=O)NCCN(C)C)c(COC(=O)N(CC)CC)c(=O)n1C2` [Compound 15, 17-Diethylcarbamoyloxy-7-ethylcamptothecin-21-(2-dimethylamino)ethylamide], for which the solubility in series [1] is approximately 53 mg/mL (≈ 94 mM).

For the compound `CCc1c2c(nc3ccccc13)-c1cc([C@@](O)(CC)C(=O)NCCN(C)C)c(COC(=O)N3CCN(CC(=O)NC(C)C)CC3)c(=O)n1C2` [Compound 16, 7-Ethyl-17-(4-isopropylaminocarbonylmethyl-piperazino)-carbamoyloxy-camptothecin-21-(2-dimethylamino)ethylamide], in series [1], the solubility is not below 33 mg/mL.

Compound `CCc1c2c(nc3ccccc13)-c1cc([C@@](O)(CC)C(=O)NCCN(C)C)c(COC(=O)OC)c(=O)n1C2` [Compound 18, 7-Ethyl-17-methoxycarbonyloxycamptothecin-21-(2-dimethylamino)ethylamide] yielded a solubility in series [1] not below 50 mg/mL.

`CCOC(=O)OCc1c([C@@](O)(CC)C(=O)NCCN(C)C)cc2n(c1=O)Cc1c-2nc2ccccc2c1CC` [Compound 19, 7-Ethyl-17-ethoxycarbonyloxycamptothecin-21-(2-dimethylamino)ethylamide]: in series [1], the solubility was not below 52 mg/mL.

Consider `CCCOC(=O)OCc1c([C@@](O)(CC)C(=O)NCCN(C)C)cc2n(c1=O)Cc1c-2nc2ccccc2c1CC` [Compound 20, 7-Ethyl-17-n-propoxycarbonyloxycamptothecin-21-(2-dimethylamino)ethylamide], for which the solubility in series [1] is not below 52 mg/mL.

`CCCCOC(=O)OCc1c([C@@](O)(CC)C(=O)NCCN(C)C)cc2n(c1=O)Cc1c-2nc2ccccc2c1CC` [Compound 21, 17-n-Butoxycarbonyloxy-7-ethyl-camptothecin-21-(2l-dimethylamino)ethylamide]: the solubility in series [1] was not below 54 mg/mL.

On to `CCc1c2c(nc3ccccc13)-c1cc([C@@](O)(CC)C(=O)NCCN(C)C)c(COC(C)=O)c(=O)n1C2` [Compound A, 7-Ethyl-17-acetoxycamptothecin-21-(2-dimethylamino)ethylamide hydrochloride, reference compound], for which the “Amount of the compound in test solution” value in series [2] (pH 5.4, 3 hr later) was determined as 126 µg/mL; in series [2] (pH 5.4, 24 hr later), 124 µg/mL; in series [2] (pH 5.4, at the time of dissolution), 126 µg/mL; in series [2] (pH 7.0, 3 hr later) it was 110 µg/mL; in series [2] (pH 7.0, 24 hr later), 107 µg/mL; in series [2] (pH 7.0, at the time of dissolution), 110 µg/mL. Besides, the “Amount of the compound in test solution” value was 79 µg/mL in series [2] (pH 10.0, 3 hr later); 16 µg/mL in series [2] (pH 10.0, 24 hr later); 102 µg/mL in series [2] (pH 10.0, at the time of dissolution). Further, the degraded at 24 h in series [2] (phosphate buffer, pH 10.0, after 24 hr, read-out: hydrolyzed in the aqueous solution) amounted to 84%.

`CCc1c2c(nc3ccccc13)-c1cc(C(O)(CC)C(=O)[O-])c(CO)c(=O)n1C2.[Na+]` (stereo not shown) [Reference Compound, 7-ethylcamptothecin sodium salt, reference compound]: the “Anti-tumor activity (T/C%)” value turned out to be 129% in the series with mouse leukemia L1210 (Table 2, total dose 3.13 mg/kg); 142% in the series with mouse leukemia L1210 (Table 2, total dose 6.25 mg/kg); 153% in the series with mouse leukemia L1210 (Table 2, total dose 12.5 mg/kg); 211% in the series with mouse leukemia L1210 (Table 2, total dose 25 mg/kg); 266% in the series with mouse leukemia L1210 (Table 2, total dose 50 mg/kg); 339% with mouse leukemia L1210 (Table 2, total dose 100 mg/kg). The “Anti-tumor activity (T/C%)” value is given as 303% with mouse leukemia L1210 (Table 2, total dose 200 mg/kg); 126% in the series on mouse leukemia L1210 (Table 4, total dose 3.13 mg/kg); 146% with mouse leukemia L1210 (Table 4, total dose 6.25 mg/kg); 151% in the series on mouse leukemia L1210 (Table 4, total dose 12.5 mg/kg); 215% with mouse leukemia L1210 (Table 4, total dose 25 mg/kg); 249% with mouse leukemia L1210 (Table 4, total dose 50 mg/kg). Also, the “Anti-tumor activity (T/C%)” value in the series with mouse leukemia L1210 (Table 4, total dose 100 mg/kg) worked out at 513%; in the series on mouse leukemia L1210 (Table 4, total dose 200 mg/kg), 362%. Moreover, the “Anti-tumor activity: fraction in parentheses after T/C% (meaning not given)” value in the series with mouse leukemia L1210 (Table 2, total dose 100 mg/kg) is recorded as 2/6; with mouse leukemia L1210 (Table 2, total dose 200 mg/kg), 1/6; in the series on mouse leukemia L1210 (Table 4, total dose 100 mg/kg) it was 4/6; with mouse leukemia L1210 (Table 4, total dose 200 mg/kg), 1/6.
